Residues, ends and D or L forms follow the SMILES beside them.
Experiments:
[1] = tested on: SN12C (CDH6 positive renal cancer cell); test: Comparison of in vitro cancer cell apoptotic activity among the polypeptides (FIG. 2); assay type: cell-based; conditions: 1 μg or 2 μg of polypeptide
Method: The polypeptide fragments were assayed for cancer cell apoptotic activity. Concrete experiment procedures were as follows: H460, HCT116, MCF7, HeLa, SN12C or RENCA cells were each seeded at a density 5,000 cells/mL into 96-well plates (Corning, New York, USA) and incubated for 24 hours with 100 nM of each of the polypeptide fragments and the full-length GRS protein. Then, each sample was treated for 2 hours with 10 μl of CCK8 reagent (Dojindo Molecular Technologies Inc. Kumamoto, Japan) before absorbance was read at 570 nm on a microplate reader (TECAN, Mannedorf, Swiss).
Comparison was made of cancer cell apoptotic activity among the polypeptide constructs of Examples 1-1 and 1-2. Each polypeptide was used in an amount of 1 μg or 2 μg, and the assay was performed in the same manner as in Example 1-1.

[2] = molecular target: T1, cadherin6 (CDH6)-fc fusion protein (Homo sapiens, UniProt P55285); test: Affinity for CDH6 by surface plasmon resonance (SPR); assay type: binding; conditions: CDH6 immobilized on carboxymethyl dextran chip
T1 construct: Fc
Method: Comparison was made of the affinity of the peptides of the present invention for CDH6. The binding of GRS and GRS-derived peptides to cadherin6 (CDH6)-fc fusion protein was analyzed by surface plasmon resonance (SPR) using SR7500DC, Reichert Analytical Instrument (Depew NY). CDH6 was immobilized on a [CMDH chip]carboxymethyl dextran sensor chip via a free carboxyl group on the surface thereof, followed by injecting 0.1M 1-ethyl-3-(3-dimethylaminopropyl) carbodiimide hydrochloride and 0.05M N-hydroxysuccinimide at a flow speed of 5 μL/min to give an activated succinimide ester-modified surface. Various concentrations of GRS and GRS-derived peptides were injected at a flow speed of 30 μL/min into phosphate-based saline, after which a mobile-phase buffer was injected at the same flow speed to determine a dissociation rate. Data was analyzed using Software Scrubber 2.0 (Biological Software, Australia).

[3] = tested on: CDH6+/pERK+ cells (H460, HeLa, SN12C) or negative cells (RENCA, MCF7); test: CDH6-dependency: cell viability of CDH6/pERK positive or negative cells; assay type: cell-based; conditions: GRS-DP 100 nM (FIG. 5a legend: 200 nM); CDH6 positive vs negative cells
[4] = tested on: pERK in SN12C (CDH6 positive) cells or RENCA (CDH6 negative) cells; test: Dephosphorylation of pERK by western blotting; assay type: cell-based; conditions: 100 nM or 200 nM, 1 hour; SN12C vs RENCA; FIGS. 5b, 5c
Method: To examine whether the polypeptides of the present invention dephosphorylates pERK by binding to CDH6 or not, SN12C (CDH6 positive) cells or RENCA (CDH6 negative) cells were treated with the polypeptides of the present invention (typically, 100 nM or 200 nM of GRS-DP) and dephosphorylation of pERK was analyzed. In this regard, full-length GRS 100 nM was used as a positive control. In brief, the cells were […] for 1 hour with full-length GRS or GRS-DP, washed twice with chilled PBS, and lysed in a lysis buffer (150 mM NaCl, 2 mM EDTA, 1% Triton X-100, 1% sodium deoxycholate, 10 mM NaF, 1 mM orthovandadate, 10% glycerol, protease cocktail). Thirty micrograms of each protein were run on SDS/PAGE, followed by western blotting with an ERK antibody purchased from Cell Signaling Technology (Danvers, MA, USA) and an anti-cadherin-6 (K-cadherin) antibody purchased from Abcam (Cambridge, UK).

[5] = tested on: SN12C (CDH6 positive) cells; test: In vivo anticancer activity, intravenous injection, SN12C xenograft; parameters: species or system BALB/c nude mice; conditions: 5 MPK intravenously on day 5 and 7; monitored 21 days; FIGS. 7a to 7c
Excerpt: FIG. 7a is an image of tumors excised from experimental animals in each test group sacrificed on day 21 after xenotransplantation of tumor cells, showing results of evaluating the ability of GRS, GRS-DP, and representative fragments derived therefrom (GRS-DP-B, or GRS-DP-A cyclic) to induce tumor regression in vivo by intravenous injection. Briefly, SN12C (CDH6 positive) cells were subcutaneously injected into BALB/c nude mice and then grown for 5 days to an average tumor size of 100 mm^3. On day 5 and 7, PBS or test materials were each intravenously injected at a dose of 5 MPK (n=5 animals/group). Tumor volumes were calculated according to “maximum diameter×minimum diameter^2×0.52”.
Experimental procedures of an assay for in vivo anticancer activity are schematically represented in FIG. 6a. Briefly, 1×10^7 SN12C (CDH6 positive) cells were subcutaneously injected to the right flank of female BALB/c 8 weeks old (Dooyeol Biotech Co. Ltd, Seocho-gu, Seoul) and then grown for 5 days to an average tumor size of 100 mm^3. On day 5 and 7, PBS (control) or test materials (including a control) were each intravenously injected at a dose of 5 MPK (n=5 animals/group). After monitoring the tumors for 21 days, the mice were sacrificed on day 21 and the tumors were excised. Tumor volumes were calculated according to “maximum diameter×minimum diameter^2×0.52”.

[6] = tested on: SN12C (CDH6 positive) cells; test: In vivo anticancer activity, intra-tumor injection, SN12C xenograft; parameters: species or system BALB/c nude mice; conditions: 20 μg into tumors on day 5 and 7; monitored 21 days; FIGS. 6b to 6d
Method: FIG. 6a is an experimental scheme for evaluating the ability of GRS, GRS-DP, and representative fragments derived therefrom (GRS-DP-B, or GRS-DP-A cyclic) to induce tumor regression in vivo by intra-tumor injection. Briefly, SN12C (CDH6 positive) cells were subcutaneously injected into BALB/c nude mice and then grown for 5 days to an average tumor size of 100 mm^3. On day 5 and 7, PBS or test materials were each injected at a dose of 20 μg into tumors (n=5 animals/group). Tumor volumes were calculated according to “maximum diameter×minimum diameter^2×0.52”.
Experimental procedures of an assay for in vivo anticancer activity are schematically represented in FIG. 6a. Briefly, 1×10^7 SN12C (CDH6 positive) cells were subcutaneously injected to the right flank of female BALB/c 8 weeks old (Dooyeol Biotech Co. Ltd, Seocho-gu, Seoul) and then grown for 5 days to an average tumor size of 100 mm^3. On day 5 and 7, PBS (control) or test materials (including a control) were each injected at a dose of 20 μg into tumors (n=5 animals/group). After monitoring the tumors for 21 days, the mice were sacrificed on day 21 and the tumors were excised. Tumor volumes were calculated according to “maximum diameter×minimum diameter^2×0.52”.

B16F10 cells = test: In vivo tumor targeting of Alexa fluor 488-labeled polypeptides, intravenous injection; parameters: species or system C57BL/6 mice; conditions: 1 mg/kg intravenously, tumors excised after 24 hours; compared to full-length GRS protein and GRS-DP; FIGS. 8a, 8b
Excerpt: FIG. 8a is an image of tumors excised from test groups, showing comparison of abilities of GRS, GRS-DP, and representative fragments derived therefrom (GRS-DP-B or GRS-DP-A cyclic) to specifically target cancer cells in terms of fluorescence labeling intensity. In the experiment, B16F10 cells were subcutaneously injected into C57BL/6 mice and then grown for 14 days. On day 14, PBS or fluorescence-labeled test materials were each intravenously injected at a dose of 1 MPK, and tumors were excised 24 hours after injection.
Thus, the ability of GRS-DP-B to target tumors in practice was evaluated when it was administered in a systemic manner. For this, GRS-DP-B, GRS-DP-A cyclic, GRS-DP, and full-length GRS protein were assayed for tumor targeting ability in vivo. Briefly, B16F10 cells (5×10^6 cells) were subcutaneously injected into the right flank of each of C57BL/6 mice 8 weeks old. On day 14, full-length GRS and the polypeptides of the present invention, each labeled with Alexa fluor 488, were intravenously injected at a dose of 1 mg/kg mouse weight, and the tumors were excised after 24 hours. Fluorescent signals of tumors were measured using IVIS Lumina Series III (PerkinElmer, Massachusetts, USA) to analyze regions of interest (ROI)

T1 sequence (P55285 with tags, fused parts or gaps limits assumed): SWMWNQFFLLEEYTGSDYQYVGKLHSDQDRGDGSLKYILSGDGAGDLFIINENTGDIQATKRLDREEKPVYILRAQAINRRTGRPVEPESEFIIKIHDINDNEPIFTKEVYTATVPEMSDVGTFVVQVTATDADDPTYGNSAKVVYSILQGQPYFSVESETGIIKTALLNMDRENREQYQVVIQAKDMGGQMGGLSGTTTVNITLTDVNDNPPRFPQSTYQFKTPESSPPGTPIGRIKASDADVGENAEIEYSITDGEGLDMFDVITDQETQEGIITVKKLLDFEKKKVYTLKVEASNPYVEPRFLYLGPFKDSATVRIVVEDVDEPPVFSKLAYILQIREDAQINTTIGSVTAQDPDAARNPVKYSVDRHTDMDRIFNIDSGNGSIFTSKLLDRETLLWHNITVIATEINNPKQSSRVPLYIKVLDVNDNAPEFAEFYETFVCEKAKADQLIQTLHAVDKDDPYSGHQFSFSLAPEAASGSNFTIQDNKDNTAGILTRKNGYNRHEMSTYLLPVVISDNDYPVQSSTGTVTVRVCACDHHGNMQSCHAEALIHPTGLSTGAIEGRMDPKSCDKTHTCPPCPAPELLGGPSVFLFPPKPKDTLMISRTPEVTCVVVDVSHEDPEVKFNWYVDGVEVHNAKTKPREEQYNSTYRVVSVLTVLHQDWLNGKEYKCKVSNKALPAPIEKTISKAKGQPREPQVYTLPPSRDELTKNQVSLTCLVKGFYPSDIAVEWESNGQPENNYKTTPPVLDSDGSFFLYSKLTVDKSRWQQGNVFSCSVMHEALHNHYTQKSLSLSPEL

Row | Compound | cancer cell apoptotic effect [1] | Kd [2] [nM] | cell viability [3] | dephosphorylation of pERK [4] | sizes (volumes) and weights of tumors [5] | sizes (volumes) and weights of tumors [6] | tumor-specific target ability (fluorescence ROI of excised tumors) (B16F10 cells)
1 | CSCC[C@H](N)C(=O)N[C@@H](Cc1ccc(O)cc1)C(=O)N[C@H](C(=O)N[C@H](C(=O)N[C@@H](Cc1ccccc1)C(=O)N[C@@H](CCC(=O)O)C(=O)N[C@@H](Cc1c[nH]cn1)C(=O)N[C@H](C(=O)N[C@@H](Cc1ccccc1)C(=O)N[C@@H](Cc1c[nH]cn1)C(=O)N[C@H](C(=O)N[C@@H](CCCNC(=N)N)C(=O)N[C@@H](CCC(=O)O)C(=O)NCC(=O)N[C@@H](CC(=O)O)C(=O)N[C@@H](CCC(=O)O)C(=O)N[C@@H](CCC(N)=O)C(=O)N[C@@H](CCCNC(=N)N)C(=O)N[C@H](C(=O)N[C@@H](Cc1ccccc1)C(=O)N[C@@H](Cc1ccccc1)C(=O)N[C@@H](CO)C(=O)N[C@@H](Cc1ccccc1)C(=O)N1CCC[C@H]1C(=O)N[C@@H](C)C(=O)O)[C@@H](C)O)C(C)C)[C@@H](C)O)C(C)C)[C@@H](C)O [GRS-DP-A linear] (H-MYTVFEHTFHVREGDEQRTFFSFPA-OH; N-terminus and C-terminus assumed) | remarkably |  |  |  |  |  | 
2 | MYTVFEHTFHVREGDEQRTFFSFPAVVAPFKCSVLPLSQNQEFMPFVKELSEALTRHGVSHKVDDSSGSI [GRS-DP] | remarkably | 83.9 | reduced the cell viability of CDH6-positive cells only | inducing the CDH6-dependent dephosphorylation of pERK |  |  | 
3 | GRS-DP-C: truncated GRS fragment, positions 538-552 on SEQ ID NO: 1, 15 aa (SEQ ID NO: 12) (TFHVREGDEQRTFFS; GRS-DP-C (GRS 538-552)) | not detected |  |  |  |  |  | 
4 | GRS-DP-B: truncated GRS fragment, positions 531-538 on SEQ ID NO: 1, 8 aa (SEQ ID NO: 2) (MYTVFEHT; GRS-DP-B(GRS 531-538)) | remarkably |  |  |  | most remarkably reduced | most remarkably reduced | remarkably high tumor-specific target ability
